According to patent US20110318768A1, “METHOD FOR DETERMINING SENSITIVITY OF TUMOR CELLS TO TYROSINE KINASE INHIBITOR AND COMPUTER PROGRAM PRODUCT” (SYSMEX CORPORATION, priority 2010, published 2011):

How the values were obtained:
[1] = test system: tyrosine kinase in measurement samples of lapatinib-insensitive cell line group; experiment: Tyrosine kinase activity inhibition, group comparison (FIG. 3); type: biochemical
Description: (§1) After shaking the measuring plate at 37° C. and 400 rpm for 60 minutes, the solution was removed from the measuring plate, and the wells were washed with 300 μl of TBS-T three times. 100 μl of Starting Block T20 (TBS) (#37543: Pierce) as a blocking solution was added to the wells, followed by blocking at 37° C. and 400 rpm for 10 minutes. The blocking solution was removed from the measuring plate. 100 μl of a solution prepared by diluting HRP-labeled anti-phosphorylated tyrosine antibody (#sc-508 HRP: Santa Cruz) with Starting Block T20 (TBS) at a ratio of 1:1000 was added to the wells, followed by shaking at 37° C. and 400 rpm for 90 minutes. Then, the wells were washed with 300 μl of TBS-T five times. […] Thereafter, the emission from the wells was measured by a GENios microplate reader (manufactured by Tecan Trading AG). The inhibitory capacity of the kinase inhibitors in the measurement sample was evaluated by an inhibition rate (value of “100−{(measurement value of activity in the presence of inhibitors)/(measurement value of activity in the absence of inhibitors)}×100”) calculated base on a ratio of the measurement value of tyrosine kinase activity in the presence of the inhibitors and the measurement value of the control (in the absence of the inhibitors). […]

[2] = test system: tyrosine kinase in measurement samples of lapatinib-sensitive cell line group; experiment: as above; type: biochemical
Description: as §1

COc1cc2ncnc(Nc3ccc(Oc4ccccc4)cc3)c2cc1OC [Inhibitor 10, 4-(4′-phenoxyanilino)-6,7-dimethoxyquinazoline]
inhibitory effect of the Src inhibitor on the kinase activity [1]: high
inhibitory effect of the Src inhibitor on the kinase activity [2]: low
